# Reference: patent publication EP1100481B1, “PHARMACEUTICAL FORMULATIONS COMPRISING BECLOMETHASONE DIPROPIONATE FOR THE TREATMENT OF INFLAMMATORY BOWEL DISEASE” (CHIESI FARMACEUTICI S.p.A., priority 1998, dated 2000)
# Test: Pharmacokinetic-scintigraphic study of systemic absorption
# Type: in vivo
# Details: healthy volunteers
# Method: The disintegration behavior of the tablets was also evaluated in vivo, at the intestinal site, in a study carried out on 8 healthy volunteers. A scintigraphic technique was employed as it is suitable for evaluating the position and integrity of the tablet within the gastrointestinal tract (Steed K.P. et al. Int J Pharmaceutics 1994; 112:199-206). […] These findings confirmed that the modified-relase tablets of the invention meet the requirements considered necessary for a formulation designed for the topical treatment of inflammatory bowel disease.
smiles,measurement,value
"CCC(=O)OCC(=O)[C@@]1(OC(=O)CC)[C@@H](C)C[C@H]2[C@@H]3CCC4=CC(=O)C=C[C@]4(C)[C@@]3(Cl)[C@@H](O)C[C@@]21C [BDP, beclomethasone dipropionate]",systemic absorption of unmetabolised BDP and/or of its metabolites,absence of systemic absorption
